Experimental data taken from patent publication US4622338A, “Substituted glutaric acid lactones in the treatment of hyperlipidemia” (G. D. Searle & Co., priority 1985, dated 1986).

Molecular target: T1, rat liver microsomal HMGCoA reductase (Rattus norvegicus, UniProt P51639)
T1 construct: rat liver microsomal HMGCoA reductase; from tissue; host or cells: rat liver microsomes
T1 sequence (P51639 1-887): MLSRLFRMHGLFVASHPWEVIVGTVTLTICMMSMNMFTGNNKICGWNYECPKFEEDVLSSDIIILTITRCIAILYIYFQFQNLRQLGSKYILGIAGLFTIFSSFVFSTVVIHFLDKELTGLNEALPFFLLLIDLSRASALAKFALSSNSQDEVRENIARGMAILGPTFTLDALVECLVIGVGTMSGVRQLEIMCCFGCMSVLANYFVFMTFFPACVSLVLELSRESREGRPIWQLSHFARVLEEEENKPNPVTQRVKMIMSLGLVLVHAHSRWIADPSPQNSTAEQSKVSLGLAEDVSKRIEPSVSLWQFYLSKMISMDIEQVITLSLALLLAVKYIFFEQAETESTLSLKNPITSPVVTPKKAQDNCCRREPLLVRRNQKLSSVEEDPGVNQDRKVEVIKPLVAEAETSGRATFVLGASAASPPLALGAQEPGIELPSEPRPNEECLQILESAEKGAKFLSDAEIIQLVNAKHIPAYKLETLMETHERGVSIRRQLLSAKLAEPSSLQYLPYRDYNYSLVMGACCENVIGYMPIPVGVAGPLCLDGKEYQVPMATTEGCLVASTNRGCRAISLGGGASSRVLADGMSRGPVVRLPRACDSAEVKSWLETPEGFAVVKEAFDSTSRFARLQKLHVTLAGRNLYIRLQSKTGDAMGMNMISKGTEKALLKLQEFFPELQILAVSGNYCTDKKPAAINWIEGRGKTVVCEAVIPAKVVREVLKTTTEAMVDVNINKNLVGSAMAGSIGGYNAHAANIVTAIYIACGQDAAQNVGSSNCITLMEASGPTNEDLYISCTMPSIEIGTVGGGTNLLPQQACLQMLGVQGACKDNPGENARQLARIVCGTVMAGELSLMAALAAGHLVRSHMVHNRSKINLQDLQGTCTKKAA
Assay: in vitro inhibition of rat liver microsomal HMGCoA reductase
Type: biochemical
Conditions: read-out: % inhibition (HMG CoA reductase); for inhibition at 50 µM: at 5.0×10^-5 M
Protocol: The in vitro inhibitory activity of the present compounds is evaluated using rat liver microsomal HMGCoA reductase as described by Edwards, et al. J. Biol. Chem. 249, 2891 (1974). The IC50 is defined as the concentration required to inhibit the enzyme by 50% of control.
HMG derivaties are added to a preincubation mixture consisting of 0.1 M K PO4, PH7.2, 0.02 M glucose-6-PO4, 2.5 mM NADP, 0.7 units of glucose-6-PO4 dehydrogenase, 5 mM dithiothreitol, 50 mM mevalonic acid and approximately 50 μg of microsomal protein. Triplicate samples are preincubated for 15 min. at 37° C. in a volume of 1 ml. Incubation is started with 40 μM 14C-HMGCoA (0.1 ml) run for 15 min. at 37° C. and stopped with 5 N HCl (0.1 ml). Assay tubes are allowed to set for at least 30 min., then approximately 50,000 dpm of ^3 H-mevalonic acid are added to provide for extraction efficiency. Mevalonic acid is extracted with ether and the % ^14 C-HMGCoA incorporation determined for concurrent control and test reaction systems. Testing is done (first) with a range finding assay followed by a 4 or 5 point assay to find the IC50 value.

Row | inhibition at 50 µM [%] | inhibition at 75 µM (at 7.5×10^-5 M) [%] | Structure (SMILES)
1 | 52 | – | CCCCCCCCCCCCCC1CC(O)(CC(=O)O)CC(=O)O1 (stereo not drawn) [Example 1, 3-Carboxymethyl-3,5-Dihydroxyoctadecanoic Acid-1,5-Lactone]
2 | 57 | – | CC(CCCCCCCCC1CC(O)(CC(=O)O)CC(=O)O1)c1ccccc1 (stereo not drawn) [Example 2, 3-Carboxymethyl-3,5-dihydroxy-14-phenylpentadecanoic acid 1,5-Lactone]
3 | – | 49 | CC(CCCCCCCCC1CC(O)(CC(=O)O)CC(=O)O1)C1CCCCC1 (stereo not drawn) [Example 3, 3-Carboxymethyl-14-cyclohexyl-3,5-dihydroxypentadecanoic acid 1,5-lactone]
